Laboratory results taken from PubChem BioAssay (NCI).
Several values for one entry are separate records, joined by “and”; a condition that tells them apart may be missing. Identical values can stand only once.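 Exposure lasted 48 hours, with cells grown in 96-well plates and compounds tested at five concentrations. Here, GI50 denotes the concentration required for 50% inhibition of growth. TGI: total growth inhibition.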

What was measured:
Experiment in all cases: NCI tumour cell line growth inhibition, 48 h
[1] = tested on: SNB-19 CNS
[2] = tested on: KM12 colon
[3] = tested on: COLO 205 colon
[4] = tested on: HCT-116 colon
[5] = tested on: LOX IMVI melanoma
[6] = tested on: SR leukemia
[7] = tested on: SN12C renal
[8] = tested on: RPMI-8226 leukemia
[9] = tested on: SK-MEL-2 melanoma
[10] = tested on: SK-MEL-5 melanoma

SMILES | GI50 [1] | TGI [1] | GI50 [2] | TGI [2] | GI50 [3] | TGI [3] | GI50 [4] | TGI [4] | GI50 [5] | TGI [5] | GI50 [6] | TGI [6] | GI50 [7] | TGI [7] | GI50 [8] | TGI [8] | GI50 [9] | TGI [9] | GI50 [10] | TGI [10]
CC1=C2[C@@H](CC1)[C@]1(C)O[C@@](C(C)C)(C[C@H]1OC(=O)CO)[C@H]2OC(=O)C1CC1c1ccccc1 (some centres undefined) | 16.7 µM | 34.6 µM | 12.9 µM | 27.4 µM | 16.1 µM | 33 µM | 17.7 µM | 33.2 µM | 14.4 µM | 31.1 µM | 10.9 µM | 34.9 µM | 9.36 µM | 27.6 µM | 12.8 µM | 42.6 µM | 15.5 µM | 32.3 µM | 15.2 µM | 28.8 µM
COc1cc(Nc2ncc(-c3ccccc3)o2)cc(OC)c1 | > 25 µM | > 25 µM | 1.59 µM | > 25 µM | > 25 µM | > 25 µM | > 25 µM | > 25 µM | > 25 µM | > 25 µM | > 17.7 µM | > 25 µM | > 25 µM | > 25 µM | > 25 µM | > 25 µM | > 25 µM | > 25 µM | > 25 µM | > 25 µM
COc1ccc2c(c1)nc(C(=O)c1ccco1)c(C(F)(F)F)[n+]2[O-] | > 100 µM | > 100 µM | > 100 µM | > 100 µM | > 100 µM | > 100 µM | > 100 µM | > 100 µM | > 100 µM | > 100 µM | > 100 µM | > 100 µM | > 100 µM | > 100 µM | > 100 µM | > 100 µM | > 100 µM | > 100 µM | > 100 µM | > 100 µM
COCc1c(-c2cc3cc(C)cc(OC)c3s2)c2c(N)ncnn2c1CN1CCNC(=O)C1 | 8.21 µM | > 100 µM | 5.62 µM | 77.6 µM | 5.13 µM | 24.4 µM | 5.08 µM | 44.4 µM | 3.05 µM | 13.5 µM | 3.81 µM | 40.5 µM | 4.02 µM | 67.1 µM | 1.58 µM | 6.83 µM | 2.83 µM | 8.61 µM | 6.16 µM | 18.6 µM
CC1=C(/C=C/C(C)=C/C2CC(N(C)C)=CC(=O)O2)C(C)(C)CCC1 (centres undefined) |  | 28.6 µM |  | 31.2 µM |  | 27.2 µM |  | 43 µM |  | 30.3 µM |  | 28.7 µM |  | 29.2 µM |  | 19.3 µM |  | 27.4 µM |  | 19.6 µM
COc1ccc(C/C(=C(\C)c2ccc(OCCN3CCCC3)cc2)c2ccc(OCCN3CCCC3)cc2)cc1 | 2.12 µM | 4.75 µM | 1.79 µM | 3.52 µM | 1.72 µM | 3.38 µM |  |  | 1.73 µM | 3.18 µM | 0.565 µM | 3.47 µM | 1.67 µM | 3.2 µM | 1.87 µM | 4.3 µM | 1.87 µM | 3.53 µM | 1.72 µM | 3.11 µM
CCCCCCCCCCCCCCCCCCn1cc[n+](C)c1 | 1.22 µM and 1.18 µM | 3.57 µM and 2.42 µM | 0.275 µM | 0.879 µM | 0.35 µM | 1.28 µM |  |  | 0.189 µM and 0.406 µM | 0.479 µM and 1.75 µM | 1.24 µM | > 100 µM | 1.07 µM and 0.826 µM | 2.47 µM and 2.3 µM | 0.0268 µM | 0.233 µM |  |  |  | 
COc1ccc(Cc2coc3ccccc3c2=O)cc1OC |  | > 100 µM |  |  |  | > 100 µM |  | > 100 µM |  | > 100 µM |  | > 100 µM |  | > 100 µM |  | > 100 µM |  | > 100 µM |  | 67.8 µM
Nc1ccc(C(=O)N/C(=C\c2cccc([N+](=O)[O-])c2)c2nc3[nH]c(=S)[nH]c(=O)c3[nH]2)cc1 |  | > 93.1 µM |  | > 100 µM |  | > 100 µM |  | > 100 µM |  | > 100 µM |  | > 100 µM |  | > 100 µM |  | > 100 µM |  | > 100 µM |  | > 100 µM
COc1ccc2c(c1)[nH]c(=O)c1c3cccc(F)c3cn21 | 0.218 µM | > 69.6 µM | 0.0436 µM | > 100 µM | 0.0388 µM | 1.11 µM | 0.0458 µM | 13.9 µM | 0.0759 µM | > 100 µM | 0.0247 µM | 0.594 µM | 0.0828 µM | 24.4 µM | 0.0295 µM | 0.27 µM | 0.469 µM | > 100 µM | 0.0449 µM | > 100 µM
c1ccc(C2OC3(CCC[C@H]4C[C@H]43)O[C@H]2c2ccccc2)cc1 (some centres undefined) |  | > 100 µM |  | > 100 µM |  | 91.7 µM |  | > 100 µM |  | 56.8 µM |  | 54.2 µM |  | > 100 µM |  | 96.9 µM |  | 39.6 µM |  | 65.7 µM
Nc1ccc(C2=CC(c3ccc(Cl)cc3)N3C=CSC3=N2)cc1 (centres undefined) | 11.8 µM | 29 µM | 1.95 µM | 3.86 µM | 8.59 µM | 20.6 µM | 1.66 µM | 3.2 µM | 2.34 µM | 5.65 µM | 2.1 µM | 5.51 µM | 6.4 µM | 26.9 µM |  |  | 26.3 µM | 59.3 µM | 5.67 µM | 19.2 µM
Cc1cccc2nc3ccccc3c(Nc3ccc(NS(C)(=O)=O)cc3)c12 | 6.98 µM | 56.2 µM | 6.19 µM | 22.4 µM | 7.61 µM | 24 µM | 3.67 µM | 15.9 µM | 3.38 µM | 15.1 µM | 1.51 µM | 6.7 µM | 3.55 µM | 15.4 µM | 2.68 µM | 9.19 µM | 16.9 µM | 31.8 µM | 4.91 µM | 17.5 µM
COc1ccc2c(c1OC)CO[C@@H]2[C@H]1c2c(cc3c(c2OC)OCO3)CCN1S(=O)(=O)c1cn(C)cn1 | 1.76 µM | > 100 µM | 0.684 µM | > 100 µM | 1.72 µM | 11.6 µM | 0.494 µM | > 100 µM | 4.48 µM | > 100 µM | 0.902 µM | > 100 µM | 3.9 µM | > 100 µM | 2.48 µM | 30.2 µM | 2.17 µM | > 100 µM | 0.444 µM | 6.24 µM
